We go through 53 substances from patent publication US20240393292A1, “ALLERGY ANTIGEN AND EPITOPE THEREOF” (HOYU CO., LTD., priority 2019, published 2024).

In this assay the test system is IgE antibodies from patients. Nature of the assay: Wheat epitope mapping (2): overlapping 10-amino-acid peptide fragments shifted by one amino acid.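 For Rank of partial sequence as epitope binding to IgE antibody: key = sequence deemed particularly important within the common 15-residue sequence.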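 For epitope sequence binding to IgE antibody, rank (Key/Preferably/More preferably): key of grades: preferably = shorter partial sequence still acting as epitope; more preferably = sequence improving IgE binding; key = particularly important sequence.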 It is filed as binding, human. As to conditions: for Epitope sequence binding to IgE antibody, rank of the sequence (Key/Preferably/More preferably/Further preferably): serum of patient P50 (child, general immediate type allergy to wheat). The essentials:
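Residual binding was banded as <30% none, 30–<50% poor, 50–<70% somewhat poor and ≥70% retained, relative to the parent overlapping sequence set to 100%. Values were chemiluminescent IgE signals from patient sera after subtracting secondary-antibody-only controls. The peptides were spot-synthesised 10-mers shifted by one amino acid.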

Where [1] appears, read: serum of patient P10 (WDEIA), sequence without X.
The mark [2] stands for this setting: serum of patient P34 (WDEIA), sequence without X.
Setting [3] is: serum of patient P21 (WDEIA), sequence without X.
[4] abbreviates: serum of patient P28 (WDEIA), sequence without X.
Where [5] appears, read: serum of patient P8 (WDEIA), partial sequence.
[6] abbreviates: serum of patient P53 (child, general immediate type allergy to wheat), partial sequence.
The mark [7] stands for this setting: serum of patient G7 (adult, general immediate type allergy to wheat), sequence without X.
[8] abbreviates: serum of patient P18 (WDEIA), sequence without X.

Consider “2276 (GGIDK; REGION 1..5: note = epitope) [compound 2276]”, for which the “Epitope sequence binding to IgE antibody, rank of the sequence (Key/Preferably/More preferably)” value under setting [1] is “Key”.
On to “2723 (KIGG; REGION 1..4: note = epitope) [compound 2723]”, for which, under “serum of patient P26 (WDEIA), partial sequence”, the “Epitope sequence binding to IgE antibody, rank of the sequence” value was “Key”.
Take “2241 (RLLRGIRN; REGION 1..8: note = epitope) [compound 2241]”: the “Epitope sequence binding to IgE antibody, rank of the sequence (Key/Preferably/More preferably)” value under setting [2] is given as “Key”.
For the substance “1444 (YLQPQQPIS; REGION 1..9: note = epitope) [compound 1444]”, the “Rank of partial sequence as epitope binding to IgE antibody” value (from here on “Rank of partial sequence”) under setting [3] is given as “Preferably”.
On to “2441 (KAWSGK; REGION 1..6: note = epitope) [compound 2441]”, for which the “Epitope sequence binding to IgE antibody, rank of the sequence (Key/Preferably/More preferably)” value under setting [4] was “Key”.
Regarding “2570 (QLVQQ; REGION 1..5: note = epitope) [compound 2570]”, the “Epitope sequence binding to IgE antibody, rank of the sequence” value (serum of patient P27 (WDEIA), partial sequence) is listed as “Key”.
As for “2464 (WSGKTENEE; REGION 1..9: note = epitope) [compound 2464]”, the “Epitope sequence binding to IgE antibody, rank of the sequence (Key/Preferably/More preferably/Further preferably)” value (sequence without X) was “More preferably”.
The same measure, in the same setting: next, “2245 (SRLLRGIR; REGION 1..8: note = epitope) [compound 2245]”: “Preferably”.
For “2676 (YKGPTL; REGION 1..6: note = epitope) [compound 2676]”, the “Epitope sequence binding to IgE antibody, rank of the sequence” value under setting [5] is on record as “Key”.
As for “1734 (KEAANFT; REGION 1..7: note = epitope) [compound 1734]”, the “epitope sequence binding to IgE antibody, rank (Key/Preferably/More preferably)” value (serum of patient P56 (child, general immediate type allergy to wheat)) is listed as “Preferably”.
On to “2356 (YVTEIV; REGION 1..6: note = epitope) [compound 2356]”, for which the “Epitope sequence binding to IgE antibody, rank of the sequence (Key/Preferably/More preferably)” value (serum of patient P14 (WDEIA), sequence without X) was “Key”.
Turning to “1411 (QQPISQQQAQ; REGION 1..10: note = epitope) [compound 1411]”, the “Epitope sequence binding to IgE antibody, rank of the sequence” value (serum of patient P3 (WDEIA), sequence without X) was “Preferably”.
Turning to “1870 (YTVRTLQR; REGION 1..8: note = epitope) [compound 1870]”, the “epitope sequence binding to IgE antibody, rank (Key/Preferably/More preferably)” value (serum of patient P29 (WDEIA)) is reported as “Preferably”.
Consider “1482 (YLQPQQPISQ; REGION 1..10: note = epitope) [compound 1482]”, for which the “Rank of partial sequence” value under setting [2] is reported as “More preferably”.
“2519 (PSQLN; REGION 1..5: note = epitope) [compound 2519]”: under setting [6], the “Epitope sequence binding to IgE antibody, rank of the sequence” value is listed as “Key”.
Regarding “2694 (YKGPTL; REGION 1..6: note = epitope) [compound 2694]”, for the setting “serum of patient P35 (WDEIA), partial sequence”, the “Epitope sequence binding to IgE antibody, rank of the sequence” value is given as “Key”.
As to “2497 (QVSF; REGION 1..4: note = epitope) [compound 2497]”, the “Epitope sequence binding to IgE antibody, rank of the sequence” value (serum of patient P7 (WDEIA), partial sequence) is “Key”.
Regarding “2626 (LSKRV; REGION 1..5: note = epitope) [compound 2626]”, the “Epitope sequence binding to IgE antibody, rank of the sequence” value (serum of patient G3 (adult, general immediate type allergy to wheat), partial sequence) was “Key”.
Take “2418 (TEIVL; REGION 1..5: note = epitope) [compound 2418]”: under setting [7], the “Epitope sequence binding to IgE antibody, rank of the sequence (Key/Preferably/More preferably)” value is “Key”.
Take “1850 (VRTLQ; REGION 1..5: note = epitope) [compound 1850]”: the “epitope sequence binding to IgE antibody, rank (Key/Preferably/More preferably)” value (serum of patient P16 (WDEIA)) was “Key”.
Turning to “2417 (RCAYVTEIVL; REGION 1..10: note = epitope) [compound 2417]”, the “Epitope sequence binding to IgE antibody, rank of the sequence (Key/Preferably/More preferably)” value under setting [7] is reported as “Preferably”.
As for “1505 (SQQQA; REGION 1..5: note = epitope) [compound 1505]”, the “Rank of partial sequence” value under setting [7] was “Key”.
In the case of “1391 (QPLPPQQQ; REGION 1..8: note = epitope) [compound 1391]”, where the note is “serum of patient P15 (WDEIA), sequence without X”, the “Epitope sequence binding to IgE antibody, rank of the sequence” value was “Key”.
Consider “1223 (IQQQP; REGION 1..5: note = epitope) [compound 1223]”, for which the “Epitope sequence binding to IgE antibody, rank of the sequence” value under setting [1] was “Key”.
“2282 (IDKRVIER; REGION 1..8: note = epitope) [compound 2282]”: the “Epitope sequence binding to IgE antibody, rank of the sequence (Key/Preferably/More preferably)” value under setting [8] was “Key”.
“2655 (EAAEMNK; REGION 1..7: note = epitope) [compound 2655]”: the “Epitope sequence binding to IgE antibody, rank of the sequence” value (serum of patient P32 (WDEIA), partial sequence) is “Preferably”.
Turning to “2514 (SFQPSQLNPQ; REGION 1..10: note = epitope) [compound 2514]”, the “Epitope sequence binding to IgE antibody, rank of the sequence” value (serum of patient P51 (child, general immediate type allergy to wheat), partial sequence) is recorded as “Preferably”.
Consider “2271 (LGGIDKRV; REGION 1..8: note = epitope) [compound 2271]”, for which, for the setting “serum of patient P8 (WDEIA), sequence without X”, the “Epitope sequence binding to IgE antibody, rank of the sequence (Key/Preferably/More preferably)” value is recorded as “More preferably”.
Take “1867 (TVRTLQR; REGION 1..7: note = epitope) [compound 1867]”: where the note is “serum of patient P28 (WDEIA)”, the “epitope sequence binding to IgE antibody, rank (Key/Preferably/More preferably)” value is “Preferably”.
In the case of “2518 (PSQLNPQ; REGION 1..7: note = epitope) [compound 2518]”, under setting [6], the “Epitope sequence binding to IgE antibody, rank of the sequence” value is reported as “Preferably”.
In the case of “1712 (EAANF; REGION 1..5: note = epitope) [compound 1712]”, the “epitope sequence binding to IgE antibody, rank (Key/Preferably/More preferably)” value (serum of patient P34 (WDEIA)) was “Key”.
On to “2627 (LLASLSKRV; REGION 1..9: note = epitope) [compound 2627]”, for which, where the note is “serum of patient G7 (adult, general immediate type allergy to wheat), partial sequence”, the “Epitope sequence binding to IgE antibody, rank of the sequence” value was “Key”.
Turning to “1841 (YTVRTLQ; REGION 1..7: note = epitope) [compound 1841]”, the “epitope sequence binding to IgE antibody, rank (Key/Preferably/More preferably)” value (serum of patient P8 (WDEIA)) is given as “Preferably”.
Consider “2506 (SSQVSFQPSQ; REGION 1..10: note = epitope) [compound 2506]”, for which the “Epitope sequence binding to IgE antibody, rank of the sequence” value (serum of patient P20 (WDEIA), partial sequence) is “Preferably”.
As to “1929 (QFPGQQQ; REGION 1..7: note = epitope) [compound 1929]”, the “epitope sequence binding to IgE antibody, rank (Key/Preferably/More preferably)” value (serum of patient P15 (WDEIA)) is given as “Preferably”.
Turning to “2379 (HDIDRCAY; REGION 1..8: note = epitope) [compound 2379]”, the “Epitope sequence binding to IgE antibody, rank of the sequence (Key/Preferably/More preferably)” value under setting [4] is “Key”.
In the case of “1667 (NPDKVP; REGION 1..6: note = epitope) [compound 1667]”, for the setting “serum of patient G3 (adult, general immediate type allergy to wheat), sequence without X”, the “Rank of partial sequence” value was “Key”.
As to “1190 (QQFPPQQPYP; REGION 1..10: note = epitope) [compound 1190]”, the “Epitope sequence binding to IgE antibody, rank of the sequence” value under setting [3] is on record as “Key”.
For the substance “1477 (YLQPQQPISQ; REGION 1..10: note = epitope) [compound 1477]”, where the note is “serum of patient P32 (WDEIA), sequence without X”, the “Rank of partial sequence” value is “Preferably”.
“1690 (EAANFT; REGION 1..6: note = epitope) [compound 1690]”: the “Rank of partial sequence” value (serum of patient P16 (WDEIA), sequence without X) was “Key”.
For the substance “2307 (RVIERFEK; REGION 1..8: note = epitope) [compound 2307]”, under “serum of patient G9 (adult, general immediate type allergy to wheat), sequence without X”, the “Epitope sequence binding to IgE antibody, rank of the sequence (Key/Preferably/More preferably)” value is “Preferably”.
Consider “2299 (GIDK; REGION 1..4: note = epitope) [compound 2299]”, for which the “Epitope sequence binding to IgE antibody, rank of the sequence (Key/Preferably/More preferably)” value (serum of patient G1 (adult, general immediate type allergy to wheat), sequence without X) is on record as “Key”.
Consider “1965 (QQFPGQQ; REGION 1..7: note = epitope) [compound 1965]”, for which the “epitope sequence binding to IgE antibody, rank (Key/Preferably/More preferably)” value (serum of patient P33 (WDEIA)) was “Preferably”.
Regarding “1381 (PWQQQPLPPQ; REGION 1..10: note = epitope) [compound 1381]”, the “Epitope sequence binding to IgE antibody, rank of the sequence” value (serum of patient P12 (WDEIA), sequence without X) is given as “Preferably”.
On to “1955 (QFPGQ; REGION 1..5: note = epitope) [compound 1955]”, for which, where the note is “serum of patient P26 (WDEIA)”, the “epitope sequence binding to IgE antibody, rank (Key/Preferably/More preferably)” value was “Key”.
As for “1857 (TVRTLQR; REGION 1..7: note = epitope) [compound 1857]”, for the setting “serum of patient P18 (WDEIA)”, the “epitope sequence binding to IgE antibody, rank (Key/Preferably/More preferably)” value is reported as “Preferably”.
As for “2228 (NYRVAI; REGION 1..6: note = epitope) [compound 2228]”, the “Epitope sequence binding to IgE antibody, rank of the sequence (Key/Preferably/More preferably)” value under setting [8] is given as “Key”.
On to “1747 (EAANFT; REGION 1..6: note = epitope) [compound 1747]”, for which the “epitope sequence binding to IgE antibody, rank (Key/Preferably/More preferably)” value (serum of patient G5 (adult, general immediate type allergy to wheat)) was “Key”.
With “2291 (LGGIDK; REGION 1..6: note = epitope) [compound 2291]”, the “Epitope sequence binding to IgE antibody, rank of the sequence (Key/Preferably/More preferably)” value under setting [2] was “Key”.
For the substance “1450 (YLQPQQPISQ; REGION 1..10: note = epitope) [compound 1450]”, the “Rank of partial sequence” value (serum of patient P22 (WDEIA), sequence without X) is on record as “Further preferably”.
“2405 (RCAYVTEIVL; REGION 1..10: note = epitope) [compound 2405]”: the “Epitope sequence binding to IgE antibody, rank of the sequence (Key/Preferably/More preferably/Further preferably)” value (sequence without X) is on record as “More preferably”.
Consider “2706 (YKIGGIGTV; REGION 1..9: note = epitope) [compound 2706]”, for which the “Epitope sequence binding to IgE antibody, rank of the sequence” value under setting [5] is “Preferably”.
Turning to “1366 (INVEN; REGION 1..5: note = epitope) [compound 1366]”, under setting [7], the “Epitope sequence binding to IgE antibody, rank of the sequence” value is recorded as “Key”.
